In patent US8192962B2, “Processes for detecting toxic substances” (Daikin Industries, Ltd., priority 2001, dated 2012):

Test system: Energy system protein genes
Experiment: DNA chip mRNA expression in yeast, energy system protein genes (Table 4)
Format: cell-based, Saccharomyces cerevisiae S288C
Method in brief: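 Ratios compare mRNA levels in stressed and control S. cerevisiae. Each toxicant was applied for two hours to log-phase cultures at 25° C. at a sub-lethal, growth-inhibiting level; fluorescent cDNA (Cy3- or Cy5-dUTP) was hybridized to a genome-wide yeast chip for over 12 h at 65° C.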

SMILES: O=[N+]([O-])c1cc[n+]([O-])c2ccccc12 [(5), 4-nitroquinolin-N-oxide]
- The level of expressed mRNA in the presence of chemical substance/The level of expressed mRNA in the absence of chemical substance (yeast gene YAL060W): 1.2
- The level of expressed mRNA in the presence of chemical substance/The level of expressed mRNA in the absence of chemical substance (yeast gene YBL058W, cells incubated two hours with the chemical substance): 1.6
- The level of expressed mRNA in the presence of chemical substance/The level of expressed mRNA in the absence of chemical substance (yeast gene YBL099W, cells incubated two hours with the chemical substance): 1.0
- The level of expressed mRNA in the presence of chemical substance/The level of expressed mRNA in the absence of chemical substance (yeast gene YBR001C, cells incubated two hours with the chemical substance): 0.9
- The level of expressed mRNA in the presence of chemical substance/The level of expressed mRNA in the absence of chemical substance (yeast gene YBR185C, cells incubated two hours with the chemical substance): 0.8
- The level of expressed mRNA in the presence of chemical substance/The level of expressed mRNA in the absence of chemical substance (yeast gene YBR221C, cells incubated two hours with the chemical substance): 1.3
- The level of expressed mRNA in the presence of chemical substance/The level of expressed mRNA in the absence of chemical substance (yeast gene YCL040W): 0.5
- The level of expressed mRNA in the presence of chemical substance/The level of expressed mRNA in the absence of chemical substance (yeast gene YCR012W): 1.1
- The level of expressed mRNA in the presence of chemical substance/The level of expressed mRNA in the absence of chemical substance (yeast gene YCR046C, cells incubated two hours with the chemical substance): 1.0
- The level of expressed mRNA in the presence of chemical substance/The level of expressed mRNA in the absence of chemical substance (yeast gene YCR105W, cells incubated two hours with the chemical substance): 0.9
- The level of expressed mRNA in the presence of chemical substance/The level of expressed mRNA in the absence of chemical substance (yeast gene YDL021W): 1.7
- The level of expressed mRNA in the presence of chemical substance/The level of expressed mRNA in the absence of chemical substance (yeast gene YDL067C, cells incubated two hours with the chemical substance): 2.0
- The level of expressed mRNA in the presence of chemical substance/The level of expressed mRNA in the absence of chemical substance (yeast gene YDL078C, cells incubated two hours with the chemical substance): 1.3
- The level of expressed mRNA in the presence of chemical substance/The level of expressed mRNA in the absence of chemical substance (yeast gene YDL107W, cells incubated two hours with the chemical substance): 1.0
- The level of expressed mRNA in the presence of chemical substance/The level of expressed mRNA in the absence of chemical substance (yeast gene YDL174C): 0.5
- The level of expressed mRNA in the presence of chemical substance/The level of expressed mRNA in the absence of chemical substance (yeast gene YDL181W, cells incubated two hours with the chemical substance): 1.7
- The level of expressed mRNA in the presence of chemical substance/The level of expressed mRNA in the absence of chemical substance (yeast gene YDR001C): 1.1
- The level of expressed mRNA in the presence of chemical substance/The level of expressed mRNA in the absence of chemical substance (yeast gene YDR050C, cells incubated two hours with the chemical substance): 0.9
- The level of expressed mRNA in the presence of chemical substance/The level of expressed mRNA in the absence of chemical substance (yeast gene YDR079W, cells incubated two hours with the chemical substance): 1.2
- The level of expressed mRNA in the presence of chemical substance/The level of expressed mRNA in the absence of chemical substance (yeast gene YDR178W, cells incubated two hours with the chemical substance): 0.9
- The level of expressed mRNA in the presence of chemical substance/The level of expressed mRNA in the absence of chemical substance (yeast gene YDR231C): 1.1
- The level of expressed mRNA in the presence of chemical substance/The level of expressed mRNA in the absence of chemical substance (yeast gene YDR298C, cells incubated two hours with the chemical substance): 1.3
- The level of expressed mRNA in the presence of chemical substance/The level of expressed mRNA in the absence of chemical substance (yeast gene YDR377W, cells incubated two hours with the chemical substance): 1.9
- The level of expressed mRNA in the presence of chemical substance/The level of expressed mRNA in the absence of chemical substance (yeast gene YDR529C, cells incubated two hours with the chemical substance): 1.2
- The level of expressed mRNA in the presence of chemical substance/The level of expressed mRNA in the absence of chemical substance (yeast gene YEL024W, cells incubated two hours with the chemical substance): 1.3
- The level of expressed mRNA in the presence of chemical substance/The level of expressed mRNA in the absence of chemical substance (yeast gene YEL039C, cells incubated two hours with the chemical substance): 0.9
- The level of expressed mRNA in the presence of chemical substance/The level of expressed mRNA in the absence of chemical substance (yeast gene YER178W): 0.7
- The level of expressed mRNA in the presence of chemical substance/The level of expressed mRNA in the absence of chemical substance (yeast gene YFL057C): 0.9
- The level of expressed mRNA in the presence of chemical substance/The level of expressed mRNA in the absence of chemical substance (yeast gene YFR053C): 0.9
- The level of expressed mRNA in the presence of chemical substance/The level of expressed mRNA in the absence of chemical substance (yeast gene YGL018C, cells incubated two hours with the chemical substance): 1.1
- The level of expressed mRNA in the presence of chemical substance/The level of expressed mRNA in the absence of chemical substance (yeast gene YGL062W): 0.9
- The level of expressed mRNA in the presence of chemical substance/The level of expressed mRNA in the absence of chemical substance (yeast gene YGL187C, cells incubated two hours with the chemical substance): 1.3
- The level of expressed mRNA in the presence of chemical substance/The level of expressed mRNA in the absence of chemical substance (yeast gene YGL191W, cells incubated two hours with the chemical substance): 0.9
- The level of expressed mRNA in the presence of chemical substance/The level of expressed mRNA in the absence of chemical substance (yeast gene YGL205W, cells incubated two hours with the chemical substance): 1.1
- The level of expressed mRNA in the presence of chemical substance/The level of expressed mRNA in the absence of chemical substance (yeast gene YGL256W, cells incubated two hours with the chemical substance): 0.7
- The level of expressed mRNA in the presence of chemical substance/The level of expressed mRNA in the absence of chemical substance (yeast gene YGR008C): 0.9
- The level of expressed mRNA in the presence of chemical substance/The level of expressed mRNA in the absence of chemical substance (yeast gene YGR043C): 0.9
- The level of expressed mRNA in the presence of chemical substance/The level of expressed mRNA in the absence of chemical substance (yeast gene YGR062C, cells incubated two hours with the chemical substance, 25° C., YPD medium): 0.7
- The level of expressed mRNA in the presence of chemical substance/The level of expressed mRNA in the absence of chemical substance (yeast gene YGR087C, cells incubated two hours with the chemical substance): 1.0
- The level of expressed mRNA in the presence of chemical substance/The level of expressed mRNA in the absence of chemical substance (yeast gene YGR174C, cells incubated two hours with the chemical substance): 1.0
- The level of expressed mRNA in the presence of chemical substance/The level of expressed mRNA in the absence of chemical substance (yeast gene YGR192C): 1.1
- The level of expressed mRNA in the presence of chemical substance/The level of expressed mRNA in the absence of chemical substance (yeast gene YGR244C): 0.8
- The level of expressed mRNA in the presence of chemical substance/The level of expressed mRNA in the absence of chemical substance (yeast gene YGR254W): 1.2
- The level of expressed mRNA in the presence of chemical substance/The level of expressed mRNA in the absence of chemical substance (yeast gene YHR179W): 1.2
- The level of expressed mRNA in the presence of chemical substance/The level of expressed mRNA in the absence of chemical substance (yeast gene YIL160C): 1.0
- The level of expressed mRNA in the presence of chemical substance/The level of expressed mRNA in the absence of chemical substance (yeast gene YIR031C, cells incubated two hours with the chemical substance): 1.6
- The level of expressed mRNA in the presence of chemical substance/The level of expressed mRNA in the absence of chemical substance (yeast gene YJL052W): 0.7
- The level of expressed mRNA in the presence of chemical substance/The level of expressed mRNA in the absence of chemical substance (yeast gene YJL121C, cells incubated two hours with the chemical substance): 1.0
- The level of expressed mRNA in the presence of chemical substance/The level of expressed mRNA in the absence of chemical substance (yeast gene YJL166W, cells incubated two hours with the chemical substance): 1.6
- The level of expressed mRNA in the presence of chemical substance/The level of expressed mRNA in the absence of chemical substance (yeast gene YJL216C, cells incubated two hours with the chemical substance): 0.8
